Assays:
Experiment in all cases: relative viability (nuclei count vs DMSO), 5 days (fraction); higher = more cells survive
GSK-J4 + Bortezomib = compound: CCOC(=O)CCNc1cc(N2CCc3ccccc3CC2)nc(-c2ccccn2)n1 [GSK-J4] + CC(C)C[C@H](NC(=O)[C@H](Cc1ccccc1)NC(=O)c1cnccn1)B(O)O [Bortezomib] (partner 0.002 µM)
Summary of the method: (§1)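 Medians of duplicate plates are given as relative viability. That measure is the nuclei count in treated wells divided by the count in vehicle wells. Counts were taken on 4× images of lung cancer cell lines in 1536-well plates, 5 days after pin-tool dosing the day after seeding with one drug alone or a fixed anchor-drug dose plus five library-drug doses (not always all listed) in √10 steps.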

GSK-J4 + Pictilisib = compound: CCOC(=O)CCNc1cc(N2CCc3ccccc3CC2)nc(-c2ccccn2)n1 [GSK-J4] + CS(=O)(=O)N1CCN(Cc2cc3nc(-c4cccc5[nH]ncc45)nc(N4CCOCC4)c3s2)CC1 [Pictilisib] (partner 1 µM)
Summary of the method: as §1

GSK-J4 + Olaparib = compound: CCOC(=O)CCNc1cc(N2CCc3ccccc3CC2)nc(-c2ccccn2)n1 [GSK-J4] + O=C(c1cc(Cc2n[nH]c(=O)c3ccccc23)ccc1F)N1CCN(C(=O)C2CC2)CC1 [Olaparib] (partner 8 µM)
Summary of the method: as §1

AZ3146 + Dasatinib = compound: CN1CCC(CC1)OC2=CC(=C(C=C2)NC3=NC=C4C(=N3)N(C(=O)N4C)C5CCCC5)OC [AZ3146] + Cc1nc(Nc2ncc(C(=O)Nc3c(C)cccc3Cl)s2)cc(N2CCN(CCO)CC2)n1 [Dasatinib] (partner 0.075 µM)
Summary of the method: as §1

Cell Line	relative viability (GSK-J4 + Bortezomib; first compound 0.5 µM)	relative viability (GSK-J4 + Bortezomib; first compound 1.581 µM)	relative viability (GSK-J4 + Bortezomib; first compound 15.81 µM)	relative viability (GSK-J4 + Bortezomib; first compound 50 µM)	relative viability (GSK-J4 + Pictilisib; first compound 0.5 µM)	relative viability (GSK-J4 + Pictilisib; first compound 1.581 µM)	relative viability (GSK-J4 + Pictilisib; first compound 15.81 µM)	relative viability (GSK-J4 + Pictilisib; first compound 50 µM)	relative viability (GSK-J4 + Olaparib; first compound 0.5 µM)	relative viability (GSK-J4 + Olaparib; first compound 1.581 µM)	relative viability (GSK-J4 + Olaparib; first compound 15.81 µM)	relative viability (GSK-J4 + Olaparib; first compound 50 µM)	relative viability (AZ3146 + Dasatinib; first compound 0.08 µM)	relative viability (AZ3146 + Dasatinib; first compound 0.253 µM)	relative viability (AZ3146 + Dasatinib; first compound 0.8 µM)	relative viability (AZ3146 + Dasatinib; first compound 2.53 µM)	relative viability (AZ3146 + Dasatinib; first compound 8 µM)	relative viability (GSK-J4 + Bortezomib; first compound 5 µM)	relative viability (GSK-J4 + Pictilisib; first compound 5 µM)	relative viability (GSK-J4 + Olaparib; first compound 5 µM)
NCI-H2405	0.992	0.724	0.968	1.04	0.465	0.713	0.708	0.475	0.849	0.836	0.815	0.777	0.166	0.187	0.191	0.212	0.185			
NCI-H3122	0.938	0.982	1.02	0.993	0.547	0.63	0.557	0.382	0.539	0.578	0.575	0.504	0.878	0.816	0.859	0.817	0.752	0.986	0.785	0.668
PC-3 [JPC-3]	0.77	0.764	0.789	0.816	0.644	0.647	0.742	0.671	1.06	1.06	1.07	0.801	0.86	0.92	0.991	1.12	1.05	0.705	0.757	0.996
PC-14	0.719	0.91	0.759	0.8	0.642	0.672	0.714	0.615	0.304	0.271	0.228	0.227	0.271	0.268	0.259	0.229	0.0367	0.973	0.678	0.195
RERF-LC-KJ	0.989	0.993	1.11	0.963	0.465	0.459	0.635	0.434	0.867	0.928	0.814	0.484	0.877	0.874	0.779	0.837	0.504	1.04	0.639	0.867
SK-LU-1	1.02	1.06	0.8	0.902	0.565	0.543	0.512	0.408	0.433	0.465	0.428	0.309	0.197	0.177	0.162	0.182	0.137	0.705	0.483	0.429
SW 1573	0.872	0.724	1.07	0.898	0.526	0.562	0.544	0.294	0.471	0.365	0.354	0.153	0.557	0.637	0.505	0.357	0.117	1.08	0.549	0.486
UMC-11	0.774	0.263	0.759	0.561	0.739	0.527	0.9	0.256	0.364	0.324	0.353	0.272	0.426	0.562	0.463	0.452	0.257	0.434	0.499	0.299
